{
  "source": "ChEMBL document CHEMBL6178003",
  "about": "“Reducing Cardiovascular Side Effects of DMT Using Beta-Blockers” (ACS Med Chem Lett, 2025)",
  "key": {"[1]": {"experiment": "Half-life in human", "assay_type": "ADME"}, "[2]": {"experiment": "Half-life in iv dosed human", "assay_type": "ADME, organism-based", "details": "in vivo"}},
  "data": [
    {"smiles": "CCCC(=O)OCOC(=O)C1=C(C)NC(C)=C(C(=O)OC)C1c1cccc(Cl)c1Cl", "note": "(centres undefined) [CLEVIDIPINE]", "values": [
      {"measurement": "half-life", "setting": "[1]", "value": "~1", "unit": "min"}
    ]},
    {"smiles": "COC(=O)CCc1ccc(OCC(O)CNC(C)C)cc1", "note": "(centres undefined) [ESMOLOL]", "values": [
      {"measurement": "half-life", "setting": "[2]", "value": "~9", "unit": "min"}
    ]},
    {"smiles": "CC1(C)OC[C@@H](COC(=O)CCc2ccc(OC[C@@H](O)CNCCNC(=O)N3CCOCC3)cc2)O1", "note": "[LANDIOLOL]", "values": [
      {"measurement": "half-life", "setting": "[1]", "value": "~4", "unit": "min"}
    ]},
    {"smiles": "CN(C)CCc1c[nH]c2ccccc12", "note": "[N,N-DIMETHYLTRYPTAMINE]", "values": [
      {"measurement": "half-life", "setting": "[1]", "value": "~10", "unit": "min"}
    ]}
  ]
}
